Legend:
[1] = biological target: T1, GST-TIE2 (intracellular domains of human TIE2) (Homo sapiens, UniProt Q02763); experiment: TIE-2 Enzyme Assay (TIE2-E2), LANCE method; format: biochemical; details: for IC50: read-out: TIE2 PIC50 TIE2-E2 assay
T1 construct: made in house
In short: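 GST-tagged human TIE2 intracellular domain (aa 762–1104), preactivated 2 h with 80 μM ATP, then 5 nM enzyme run 2 h at room temperature with 1 μM biotinylated D1–15 peptide, 80 μM ATP, HEPES pH 7.4, 2.4% DMSO. Phosphotyrosine detected by LANCE (Eu anti-pTyr/streptavidin-APC) after EDTA stop; IC50 by nonlinear regression, reported as pIC50.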

GST-VEGFR2 = biological target: T2, GST-VEGFR2 (Homo sapiens, UniProt P35968); experiment: VEGF-R2 Enzyme Assay (VEGF-E2), LANCE method; format: biochemical; details: for IC50: read-out: VEGFR2 PIC50 VEGFR-E2 assay
T2 construct: GST-VEGFR2, baculovirus expressed recombinant constructs of the intracellular domains; made in house
T2 sequence (P35968 786-1356 limits assumed): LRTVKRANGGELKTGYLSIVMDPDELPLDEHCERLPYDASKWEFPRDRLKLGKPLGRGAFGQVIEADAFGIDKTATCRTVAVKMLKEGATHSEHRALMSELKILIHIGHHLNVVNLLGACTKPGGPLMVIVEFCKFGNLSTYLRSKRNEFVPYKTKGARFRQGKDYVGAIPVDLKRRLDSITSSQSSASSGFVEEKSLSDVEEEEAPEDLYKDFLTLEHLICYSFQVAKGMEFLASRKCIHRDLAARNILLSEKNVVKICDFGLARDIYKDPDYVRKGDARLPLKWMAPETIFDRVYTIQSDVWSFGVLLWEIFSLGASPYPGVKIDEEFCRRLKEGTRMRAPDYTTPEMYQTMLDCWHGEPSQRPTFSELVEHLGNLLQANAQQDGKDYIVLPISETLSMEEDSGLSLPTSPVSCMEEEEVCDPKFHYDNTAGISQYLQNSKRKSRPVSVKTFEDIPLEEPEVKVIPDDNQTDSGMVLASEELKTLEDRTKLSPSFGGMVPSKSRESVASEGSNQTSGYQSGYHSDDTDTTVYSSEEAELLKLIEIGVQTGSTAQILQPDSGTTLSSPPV

[2] = biological target: T3, catalytic domain of human VEGFR3 (Homo sapiens, UniProt P35916, H890Q); experiment: VEGFR-3 Homogenous Time-Resolved Fluorescence Assay (VEGFR-3-HTRF); format: biochemical; details: for IC50: read-out: VEGFR3 PIC50 VEGFR-3-HTRF assay
T3 construct: made in house; host or cells: Sf9 insect cells (baculovirus, pFastBac1)
T3 sequence (P35916 with tags, fused parts or gaps isoform P35916-1 H890Q): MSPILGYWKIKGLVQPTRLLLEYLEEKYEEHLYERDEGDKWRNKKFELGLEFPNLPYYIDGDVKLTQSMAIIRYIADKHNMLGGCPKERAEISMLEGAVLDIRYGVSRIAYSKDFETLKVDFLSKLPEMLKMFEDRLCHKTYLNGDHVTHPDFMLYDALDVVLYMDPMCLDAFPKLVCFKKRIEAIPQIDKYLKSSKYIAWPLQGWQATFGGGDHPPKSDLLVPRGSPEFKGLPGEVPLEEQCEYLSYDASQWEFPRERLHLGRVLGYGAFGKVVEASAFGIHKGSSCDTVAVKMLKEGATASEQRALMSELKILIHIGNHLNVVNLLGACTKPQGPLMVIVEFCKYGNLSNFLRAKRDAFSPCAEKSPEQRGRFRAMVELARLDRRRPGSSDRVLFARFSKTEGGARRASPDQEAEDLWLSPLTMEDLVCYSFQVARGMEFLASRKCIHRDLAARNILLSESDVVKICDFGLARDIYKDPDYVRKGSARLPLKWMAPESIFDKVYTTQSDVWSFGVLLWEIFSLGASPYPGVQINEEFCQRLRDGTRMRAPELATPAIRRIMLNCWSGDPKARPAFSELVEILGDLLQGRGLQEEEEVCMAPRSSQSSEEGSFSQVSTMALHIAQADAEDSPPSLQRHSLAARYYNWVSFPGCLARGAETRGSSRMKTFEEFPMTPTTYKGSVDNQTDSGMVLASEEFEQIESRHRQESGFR
In short: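 GST-tagged human VEGFR3 catalytic domain (aa 819–1298, Sf9-expressed), pre-autophosphorylated 45 min with ATP/Mg, then 1 nM enzyme with 0.36 μM biotinylated peptide, 75 μM ATP, 10 mM MgCl2, pH 7.2, 1.5 h at room temperature. EDTA stop; HTRF detection; IC50 from hyperbolic fit of % control.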

[3] = biological target: T4, TIE2 intracellular domain/c-fms extracellular domain (TIE2/c-fms) chimeric protein (Homo sapiens, UniProt Q02763); experiment: TIE-2 Autophosphorylation Assay (TIE2-C); format: cell-based; details: TIE2/c-fms expressing mouse 3T3 cells
T4 construct: fused on or other part: c-fms (CSF1R) extracellular domain in place of TIE2's own ectodomain; it serves as the capture handle for the anti-c-fms ELISA; P07333 (Macrophage colony-stimulating factor 1 receptor)
T4 sequence (Q02763 whole entry, change not shown, the tested form may be a part): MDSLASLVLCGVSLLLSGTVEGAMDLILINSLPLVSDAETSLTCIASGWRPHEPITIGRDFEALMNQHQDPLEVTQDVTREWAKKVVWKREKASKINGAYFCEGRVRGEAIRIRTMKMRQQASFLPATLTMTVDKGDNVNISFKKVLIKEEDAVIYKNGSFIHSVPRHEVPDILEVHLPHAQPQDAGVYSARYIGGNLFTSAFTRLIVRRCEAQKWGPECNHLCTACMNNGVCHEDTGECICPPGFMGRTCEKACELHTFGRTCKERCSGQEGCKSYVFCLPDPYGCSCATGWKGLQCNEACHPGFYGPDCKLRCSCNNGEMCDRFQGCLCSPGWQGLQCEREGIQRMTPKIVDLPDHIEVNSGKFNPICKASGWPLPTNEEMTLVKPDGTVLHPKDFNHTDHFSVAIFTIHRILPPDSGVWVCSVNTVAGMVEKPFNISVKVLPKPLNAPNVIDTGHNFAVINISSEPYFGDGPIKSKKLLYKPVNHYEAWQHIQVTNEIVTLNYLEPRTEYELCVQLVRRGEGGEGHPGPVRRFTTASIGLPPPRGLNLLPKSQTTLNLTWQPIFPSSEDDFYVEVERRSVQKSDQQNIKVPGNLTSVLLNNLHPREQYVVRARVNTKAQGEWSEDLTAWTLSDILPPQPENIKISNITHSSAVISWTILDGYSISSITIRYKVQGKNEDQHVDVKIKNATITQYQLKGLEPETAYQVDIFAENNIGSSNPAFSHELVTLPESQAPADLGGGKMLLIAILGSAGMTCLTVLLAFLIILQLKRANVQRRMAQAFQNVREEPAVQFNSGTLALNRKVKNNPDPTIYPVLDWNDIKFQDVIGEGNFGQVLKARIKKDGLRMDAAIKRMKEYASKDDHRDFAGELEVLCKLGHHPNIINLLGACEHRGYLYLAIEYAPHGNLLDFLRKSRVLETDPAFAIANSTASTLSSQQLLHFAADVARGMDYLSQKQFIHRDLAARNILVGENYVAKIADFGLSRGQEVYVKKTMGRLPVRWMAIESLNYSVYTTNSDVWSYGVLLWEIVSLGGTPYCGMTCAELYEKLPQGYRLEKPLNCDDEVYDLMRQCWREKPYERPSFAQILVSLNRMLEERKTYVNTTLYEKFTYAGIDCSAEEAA
Method: TIE-2 Autophosphorylation Assay (TIE2-C)
The TIE-2 autophosphorylation assay uses an ELISA method and a TIE2 intracellular domain/c-fms extracellular domain (TIE2/c-fms) chimeric protein expressing mouse 3T3 cell line. This assay measures the autophosphorylation level of TIE2 protein expressed in cells. The cells are cultured in 96 well plates and grown in high glucose DMEM containing 10% serum at 37° C. in a humidified 10% CO2, 90% air incubator. On the day of the assay, the serum containing medium is removed from the cells and replaced with serum free medium for one hour. The test compound (diluted from a 10 mM stock in DMSO, final DMSO concentration is 0.1%) is incubated with TIE2/c-fms expressing cells for 30 minutes in serum free DMEM. Intrinsic cellular dephosphorylation of the receptor is blocked by the addition of the tyrosine phosphatase inhibitor, sodium orthovanadate, from a 100 mM aqueous stock to a final concentration of 1 mM. The culture media is removed by aspiration and the cells incubated for 30 to 60 mins on ice with lysis buffer containing 137 mM NaCl, 2 mM EDTA, 10% glycerol, 1 mM sodium ortho vanadate, 1×tyrosine phosphatase inhibitor cocktail (Sigma) and complete protease inhibitor cocktail (Roche) in 20 mM Tris-HCl (pH8.0). The cell extracts are transferred into Rat anti-c-fms antibody (Zymed-clone 12-2d6) ([…]) coated 96 well plates and incubated for 12 hrs at 4 degrees. The extracts are removed by aspiration and the plate, washed in a buffer comprising PBS, 0.05% Tween-20, 0.05% NP-40 and 5% SuperBlock (Pierce) followed by incubation with an HRP (horseradish peroxidase) conjugated anti-phosphotyrosine antibody, (Upstate Biotech) The plates are again washed with the aforementioned wash buffer and the colorimetric HRP substrate, TMB is added. The reaction progresses for 90 seconds and is stopped with the addition of 2M H2SO4. The optical density at 450 nm derived from HRP catalyzed TMB is measured with a plate reader capable of reading at the appropriate wavelength (e.g. SpectroMax from Molecular Dynamics). The percent inhibition of activity is calculated relative to non-vanadate treated control wells. The concentration of test compound that inhibits 50% of activity (IC50) is interpolated using nonlinear regression (Levernberg-Marquardt) and the equation, y=Vmax (1−x/(K+x))+Y2, where “K” is equal to the IC50.

Recombinant GST-Tie2 = Recombinant GST-Tie2 (Homo sapiens, UniProt Q02763); experiment: Tie2 Fluorescence Polarization Kinase Activity Assay (TIE2-FP); format: biochemical
Recombinant GST-Tie2, sequence (Q02763 23-1124): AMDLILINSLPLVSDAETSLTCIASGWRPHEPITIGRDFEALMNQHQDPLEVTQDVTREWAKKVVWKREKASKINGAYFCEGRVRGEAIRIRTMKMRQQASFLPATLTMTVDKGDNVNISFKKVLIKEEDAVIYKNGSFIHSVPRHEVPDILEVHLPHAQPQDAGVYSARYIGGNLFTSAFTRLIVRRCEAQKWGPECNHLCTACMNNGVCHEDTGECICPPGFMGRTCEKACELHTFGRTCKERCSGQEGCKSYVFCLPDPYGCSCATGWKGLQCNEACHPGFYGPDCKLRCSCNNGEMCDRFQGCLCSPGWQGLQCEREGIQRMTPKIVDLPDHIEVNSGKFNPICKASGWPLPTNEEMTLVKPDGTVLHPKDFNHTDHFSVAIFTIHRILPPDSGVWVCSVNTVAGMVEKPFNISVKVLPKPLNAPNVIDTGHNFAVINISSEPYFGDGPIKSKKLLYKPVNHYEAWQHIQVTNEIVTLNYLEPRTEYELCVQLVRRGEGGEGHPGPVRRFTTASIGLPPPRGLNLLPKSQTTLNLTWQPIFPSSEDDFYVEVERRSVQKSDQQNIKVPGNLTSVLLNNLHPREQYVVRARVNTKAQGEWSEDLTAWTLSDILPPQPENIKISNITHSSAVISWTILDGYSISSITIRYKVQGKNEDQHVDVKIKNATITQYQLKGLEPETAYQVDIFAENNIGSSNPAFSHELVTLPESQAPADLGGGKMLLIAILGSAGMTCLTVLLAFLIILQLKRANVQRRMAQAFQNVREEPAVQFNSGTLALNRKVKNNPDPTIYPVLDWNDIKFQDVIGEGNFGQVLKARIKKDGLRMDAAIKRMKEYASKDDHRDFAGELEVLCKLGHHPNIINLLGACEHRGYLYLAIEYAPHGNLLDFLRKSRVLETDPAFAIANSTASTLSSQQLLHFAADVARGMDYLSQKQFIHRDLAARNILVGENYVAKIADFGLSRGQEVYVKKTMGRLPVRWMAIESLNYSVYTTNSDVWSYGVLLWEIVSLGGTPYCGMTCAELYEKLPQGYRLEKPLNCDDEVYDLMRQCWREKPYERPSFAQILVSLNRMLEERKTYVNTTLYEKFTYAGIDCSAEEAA
Method: Tie2 Fluorescence Polarization Kinase Activity Assay: (TIE2-FP)
Activation of Recombinant Tie2 Activation:
Recombinant GST-Tie2 is activated by incubating the enzyme in 20 mM Tris-HCl, pH 7.5, 12 mM MgCl2, 100 mM NaCl, 20 μM sodium vanidate, 1 mM DTT and 300 μM ATP at room temperature for 2 hours. The activation mixture is then passed through a NAP-25 desalting column (Pharmacia Biotech cat. no. 17-0852-02) to remove the free ATP. The activated enzyme is stored as aliquots at −80° C. in 20 mM Tris-HCl, pH 7.5 and 100 mM NaCl.
The final assay conditions are 50 mM HEPES, pH 7.5, 5% DMSO (when screening compounds), 200 μM ATP, 5 mM MgCl2, 1 mM DTT, 50 μM sodium vanidate, 1 nM activated enzyme, and 200 μM peptide. IC50's of compounds are measured under subsaturating ATP (200 μM) and varying concentrations of activated Tie2 and peptide substrate (RFWKYEFWR-OH; MW 1873 Da, TFA salt). Panvera Anti-phosphotyrosine antibody (Cat#P2840) and PTK Green Tracer (Cat#P2842) are used to detect the phosphorylated peptide. Polarization is measured on a TECAN Polarion in 138-second cycles for 30 minutes at room temperature. IC50's are then determined from the % polarization using normal calculation methods. The IC50 values are converted to pIC50 values, i.e., −log IC50 in Molar concentration.

T1 sequence (Q02763 762-1104): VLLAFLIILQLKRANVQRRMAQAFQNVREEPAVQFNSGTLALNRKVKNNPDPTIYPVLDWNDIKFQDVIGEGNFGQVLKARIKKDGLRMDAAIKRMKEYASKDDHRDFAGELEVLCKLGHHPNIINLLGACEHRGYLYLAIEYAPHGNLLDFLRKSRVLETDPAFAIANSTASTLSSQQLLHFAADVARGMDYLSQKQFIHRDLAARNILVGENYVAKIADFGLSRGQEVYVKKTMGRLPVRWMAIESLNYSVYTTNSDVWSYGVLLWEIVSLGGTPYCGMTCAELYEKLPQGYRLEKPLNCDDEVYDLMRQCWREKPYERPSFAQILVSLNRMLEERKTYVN

Row | IC50 [3] | IC50 [1] | IC50 (GST-VEGFR2) | IC50 [2] | inhibition at 10 µM (Recombinant GST-Tie2) | Compound | other results
1 | – | – | – | – | – | Cn1nc(-c2ccc(NC(=O)Nc3cc(C(F)(F)F)ccc3F)cc2)c2cnc(NCCO)nc21 [Example 29, 1-(2-Fluoro-5-trifluoromethyl-phenyl)-3-{4-[(2-hydroxy-ethylamino)-methyl-1H-pyrazolo[3,4-d]pyrimidin-3-yl]-phenyl}-urea] | IC50 (Recombinant GST-Tie2): 100 to 300 nM
2 | – | – | – | – | – | CCN(CC)CCNc1ncnc2c1c(-c1ccc(NC(=O)Nc3cc(C(F)(F)F)ccc3F)cc1)nn2C [Example 33, 1-{4-[(2-Diethylamino-ethylamino)-methyl-1H-pyrazolo[3,4-d]pyrimidin-3-yl]-phenyl}-3-(2-fluoro-5-trifluoromethyl-phenyl)-urea] | IC50 (Recombinant GST-Tie2): ≥ 300 nM
3 | 100 to 300 nM | ≤ 39.8 nM | 1000 to 10000 nM | 1000 to 10000 nM | – | Cn1nc(-c2ccc(NC(=O)Nc3cc(C(C)(C)C)on3)c(F)c2)c2cnc(NCCN3CCOCC3)nc21 [Example 57, 1-(5-tert-Butyl-isoxazol-3-yl)-3-{2-fluoro-4-[1-methyl-6-(2-morpholin-4-yl-ethylamino)-1H-pyrazolo[3,4-d]pyrimidin-3-yl]-phenyl}-urea] | –
4 | ≥ 300 nM | ≤ 39.8 nM | > 10000 nM | > 10000 nM | – | CN1CCN(CCCNc2ncc3c(-c4ccc(NC(=O)Nc5cc(C(F)(F)F)ccc5F)cc4)nn(C)c3n2)CC1 [Example 64] | –
5 | ≥ 300 nM | ≤ 39.8 nM | 1000 to 10000 nM | > 10000 nM | – | Cn1nc(-c2ccc(NC(=O)Nc3cc(C(F)(F)F)ccc3F)cc2)c2cnc(NCCCN3CCOCC3)nc21 [Example 84] | –
6 | ≥ 300 nM | 39.8 to 100 nM | 1000 to 10000 nM | 1000 to 10000 nM | – | Cn1nc(-c2ccc(NC(=O)Nc3cc(C(F)(F)F)ccc3F)cc2)c2cnc(NCCN3CCNC3=O)nc21 [Example 90] | –
7 | 100 to 300 nM | ≤ 39.8 nM | 1000 to 10000 nM | 1000 to 10000 nM | – | Cn1nc(-c2ccc(NC(=O)Nc3cc(C(F)(F)F)ccc3F)cc2)c2cnc(NCCCCN3CCCC3)nc21 [Example 91, 1-(2-Fluoro-5-trifluoromethyl-phenyl)-3-{4-[1-methyl-6-[(4-pyrrolidin-1-yl)-butylamino]-1H-pyrazolo[3,4-d]pyrimidin-3-yl]-phenyl} urea] | –
8 | < 100 nM | ≤ 39.8 nM | 1000 to 10000 nM | 1000 to 10000 nM | – | Cn1nc(-c2ccc(NC(=O)Nc3cc(C(F)(F)F)ccc3F)cc2)c2cnc(NCCCO)nc21 [Example 92, 1-(2-Fluoro-5-trifluoromethyl-phenyl)-3-{4-[1-methyl-6-(3-hydroxy-propylamino)-1H-pyrazolo[3,4-d]pyrimidin-3-yl]-phenyl} urea] | –
9 | 100 to 300 nM | ≤ 39.8 nM | 1000 to 10000 nM | 1000 to 10000 nM | – | Cn1nc(-c2ccc(NC(=O)Nc3cc(C(F)(F)F)ccc3F)cc2)c2cnc(NCCCCO)nc21 [Example 93, 1-(2-Fluoro-5-trifluoromethyl-phenyl)-3-{4-[1-methyl-6-(4-hydroxy-butylamino)-1H-pyrazolo[3,4-d]pyrimidin-3-yl]-phenyl} urea] | –
10 | ≥ 300 nM | ≤ 39.8 nM | 100 to 1000 nM | 1000 to 10000 nM | – | Cn1nc(-c2ccc(NC(=O)Nc3cc(C(F)(F)F)ccc3F)cc2)c2cnc(NCCCn3ccnc3)nc21 [Example 100, 1-(2-Fluoro-5-trifluoromethyl-phenyl)-3-{4-[1-methyl-6-(3-imidazol-1-yl-propylamino)-1H-pyrazolo[3,4-d]pyrimidin-3-yl]-phenyl} urea] | –
11 | 100 to 300 nM | ≤ 39.8 nM | > 10000 nM | – | – | Cn1nc(-c2ccc(NC(=O)Nc3cc(C(C)(C)C)on3)c(F)c2)c2cnc(NCCCN3CCOCC3)nc21 [Example 134] | –
12 | ≥ 300 nM | 39.8 to 100 nM | – | 100 to 1000 nM | – | Cn1cncc1CCNc1ncc2c(-c3ccc(NC(=O)Nc4cc(C(F)(F)F)ccc4F)cc3)nn(C)c2n1 [Example 146, 1-(2-Fluoro-5-trifluoromethyl-phenyl)-3-{4-[(1-methyl-6-(2-[3-methyl-3H-imidazol-4-yl)-ethylamino)-1H-pyrazolo[3,4-d]pyrimidin-3-yl]-phenyl]} urea] | –
13 | – | – | – | – | 49% | Cn1nc(-c2ccc(NS(=O)(=O)c3cccc(Cl)c3Cl)cc2)c2cnc(NCCN3CCOCC3)nc21 [Example 147] | –
14 | – | – | – | – | 36% | Cn1nc(-c2ccc(NS(=O)(=O)c3ccccc3F)cc2)c2cnc(NCCN3CCOCC3)nc21 [Example 148] | –
15 | – | – | – | – | 38% | Cn1nc(-c2ccc(NS(=O)(=O)c3cc(Cl)sc3Cl)cc2)c2cnc(NCCN3CCOCC3)nc21 [Example 149] | –
16 | – | – | – | – | 41% | Cn1nc(-c2ccc(NS(=O)(=O)c3ccc(Cl)s3)cc2)c2cnc(NCCN3CCOCC3)nc21 [Example 150] | –
17 | – | – | – | – | 13% | Cc1cc(-c2nn(C)c3nc(NCCN4CCOCC4)ncc23)ccc1NS(=O)(=O)c1cccc(C(F)(F)F)c1 [Example 152] | –
18 | – | – | – | – | 44% | Cc1cc(-c2nn(C)c3nc(NCCN4CCOCC4)ncc23)ccc1NS(=O)(=O)c1ccccc1F [Example 153] | –
19 | – | – | – | – | 37% | Cc1cc(-c2nn(C)c3nc(NCCN4CCOCC4)ncc23)ccc1NS(=O)(=O)c1ccc(Cl)s1 [Example 154] | –
20 | – | – | – | – | 23% | Cc1cc(-c2nn(C)c3nc(NCCN4CCOCC4)ncc23)ccc1NS(=O)(=O)c1cc(Cl)sc1Cl [Example 155] | –
21 | – | – | – | – | 23% | Cn1nc(-c2ccc(NS(=O)(=O)c3cccc(C(F)(F)F)c3)cc2)c2cnc(NCCN3CCOCC3)nc21 [Example 156] | –

Row | Compound | IC50 [3] | IC50 [1] | IC50 (GST-VEGFR2) | IC50 [2] | inhibition at 10 µM (Recombinant GST-Tie2) | other results
22 | 1-(5-tert-Butyl-isoxazol-3-yl)-3-{2-fluoro-4-[1-methyl-6-(3-(imidazol-1-yl propylamino)-1H-pyrazolo[3,4-d]pyrimidin-3-yl)-phenyl]} urea [Example 139] | 100 to 300 nM | – | – | – | – | TIE2 PIC50 TIE2-E2 assay [1]: ++++ (++++ = PIC50 = greater than or equal to 7.40); VEGFR2 PIC50 VEGFR-E2 assay (GST-VEGFR2): + (+ = PIC50 = 5.00 to less than 6.00); VEGFR3 PIC50 VEGFR-3-HTRF assay [2]: + (+ = PIC50 = 5.00 to less than 6.00)
23 | CC(C)n1nc(-c2ccc(NC(=O)Nc3cc(C(F)(F)F)ccc3F)cc2)c2cnc(NCCN3CCOCC3)nc21 [Example 78] | ≥ 300 nM | – | – | – | – | TIE2 PIC50 TIE2-E2 assay [1]: +++ (+++ = PIC50 = 7.00 to less than 7.40); VEGFR2 PIC50 VEGFR-E2 assay (GST-VEGFR2): + (+ = PIC50 = 5.00 to less than 6.00); VEGFR3 PIC50 VEGFR-3-HTRF assay [2]: + (+ = PIC50 = 5.00 to less than 6.00)

Source: US7217710B2, “Substituted pyrazolopyrimidines” (SmithKline Beecham Corporation, priority 2001, dated 2007)
